Source: the C3SDB collision cross section collection

Experiments:
[1] = instrument: DT, single field, calibrated with Agilent tune mix (Agilent)
[2] = instrument: TW, calibrated with polyalanine and drug standards
[3] = instrument: DT, single field, calibrated with ESI Low Concentration Tuning Mix (Agilent)

CC12CCC(=O)C=C1CCC1C2CCC2(C)C(C(=O)CO)CCC12 (stereo not given) [11-Deoxycorticosterone]
collision cross section (N2) ([1]; [M+H]+): 186.5 Å² | collision cross section (N2) ([1]; [M-H]-): 184.42 Å²

C[C@]12CC[C@H]3[C@@H](CC=C4C[C@@H](O)CC[C@@]43C)[C@@H]1CC[C@@H]2C(=O)CO [21-Hydroxypregnenolone]
collision cross section (N2) ([1]; [M+H-H2O]+): 178.4 Å² | collision cross section (N2) ([1]; [M-H]-): 185.89 Å²

CC(C)CC[C@@H](O)[C@@H](C)[C@H]1CC[C@H]2[C@@H]3CC=C4C[C@@H](O)CC[C@]4(C)[C@H]3CC[C@]12C [22beta-Hydroxycholesterol]
collision cross section (N2) ([1]; [M+H-H2O]+): 205.2 Å² | collision cross section (N2) ([1]; [M-H]-): 217.74 Å²

C=C1CC[C@H](O)C/C1=C/C=C1\CCC[C@]2(C)[C@@H]([C@H](C)CCCC(C)(C)O)CC[C@@H]12 [25-hydroxyvitamin D3]
collision cross section (N2) ([1]; [M-H]-): 200.06 Å²

Nc1ncnc2c1ncn2[C@@H]1O[C@H](COP(=O)(O)OP(=O)(O)OC[C@@H](O)[C@@H](O)[C@@H](O)C=O)[C@@H](O)[C@H]1O [ADP Ribose]
collision cross section (N2) ([1]; [M+H]+): 211.4 Å²

CC(=O)CC(=O)SCCNC(=O)CCNC(=O)[C@H](O)C(C)(C)COP(=O)(O)OP(=O)(O)OC[C@H]1O[C@@H](n2cnc3c(N)ncnc32)[C@H](O)[C@@H]1OP(=O)(O)O [Acetoacetyl coenzyme A]
collision cross section (N2) ([1]; [M+H]+): 247.8 Å² | collision cross section (N2) ([1]; [M-H]-): 252.94 Å²

CC(=O)Oc1cc(C)c(OC(C)=O)c2ccccc12 [Acetomenaphthone]
collision cross section (N2) ([1]; [M+Na]+): 157.2 Å²

CC(=O)OCC[N+](C)(C)C [Acetylcholine]
collision cross section (N2) ([1]; [M+H]+): 129.7 Å²

Nc1ncnc2c1ncn2[C@@H]1O[C@H](COP(=O)(O)OP(=O)(O)O)[C@@H](O)[C@H]1O [Adenosine 5'-diphosphate]
collision cross section (N2) ([1]; [M+H]+): 186.1 Å²

O=C1O[C@H](CO)[C@@H](O)[C@H](O)[C@H]1O [GLUCONOLACTONE]
collision cross section (N2) ([2]; [M+H]+): 127.6 Å² | collision cross section (N2) ([3]; [M+H2O-H]-): 132.6 Å² | collision cross section (N2) ([3]; [M+H20-H]-): 132.5 Å² | collision cross section (N2) ([3]; [M+Na]+): 144.7 Å²

O=c1nc[nH]c2nc[nH]c12 [HYPOXANTHINE]
collision cross section (N2) ([2]; [M+H]+): 123.1 Å² | collision cross section (N2) ([3]; [M+H]+): 127.2 Å² | collision cross section (N2) ([3]; [M+Na-2H]-): 134.4 Å² | collision cross section (N2) ([3]; [M+Na]+): 134.4 Å² | collision cross section (N2) ([3]; [M-H]-): 116.9 Å²

N[C@@H](Cc1cc(I)c(Oc2ccc(O)c(I)c2)c(I)c1)C(=O)O [LIOTHYRONINE]
collision cross section (N2) ([2]; [M+H]+): 205.3 Å² | collision cross section (N2) ([3]; [M+H]+): 209.1 Å² | collision cross section (N2) ([3]; [M+Na]+): 194.3 Å²

OC[C@@H](O)[C@@H](O)[C@H](O)[C@H](O)CO [MANNITOL]
collision cross section (N2) ([2]; [M+Na]+): 139.6 Å² | collision cross section (N2) ([3]; [M+Na]+): 141.1 Å²

COc1ccc2[nH]cc(CCNC(C)=O)c2c1 [MELATONIN]
collision cross section (N2) ([2]; [M+H]+): 152 Å² | collision cross section (N2) ([3]; [M+H]+): 153.2 Å² | collision cross section (N2) ([3]; [M+K]+): 158.3 Å²

OC[C@H]1O[C@H](OC[C@H]2OC(O)[C@H](O)[C@@H](O)[C@@H]2O)[C@H](O)[C@@H](O)[C@H]1O (stereo not given in full) [MELIBIOSE]
collision cross section (N2) ([2]; [M+Na]+): 174.8 Å² | collision cross section (N2) ([3]; [M+H]+): 180.4 Å² | collision cross section (N2) ([3]; [M+K]+): 180 Å² | collision cross section (N2) ([3]; [M+Na]+): 177.3 Å² | collision cross section (N2) ([3]; [M-H]-): 178.1 Å²

Cn1c(=O)[nH]c2ncn(C)c2c1=O [PARAXANTHINE]
collision cross section (N2) ([2]; [M+H]+): 132.4 Å² | collision cross section (N2) ([3]; [M+H]+): 138.7 Å² | collision cross section (N2) ([3]; [M+Na]+): 149.5 Å²

Cn1c(=O)c2[nH]cnc2n(C)c1=O [THEOPHYLLINE]
collision cross section (N2) ([2]; [M+H]+): 133.5 Å² | collision cross section (N2) ([3]; [M-H]-): 132 Å²
